Each block holds one compound with its values, some of them ahead of it.
Tests used:
[1] = target: T1, Metabotropic glutamate receptor 4 (Homo sapiens, UniProt Q14833); assay: Displacement of [3H]N-(4-chloro-3-methoxyphenyl)picolinamide from human mGlu4 receptor expressed in CHO cell membranes incubated for 30 mins by liquid scintillation counting method
[2] = target: T1, Metabotropic glutamate receptor 4; assay: Positive allosteric modulator activity at human mGlu4 receptor
[3] = test system: Liver microsome; assay: Half life in Wistar rat liver microsomes in presence of NADPH generation system by HPLC method; format: ADME
[4] = pampa
Description: Effective permeability by PAMPA method

[5] = target: Metabotropic glutamate receptor 5 (Homo sapiens, UniProt P41594); assay: Activity at mGlu5 receptor (unknown origin) expressed in HEK293 cells by Ca2+ mobilization assay; format: functional, cell-based
[6] = target: Metabotropic glutamate receptor 1 (Homo sapiens, UniProt Q13255); assay: Activity at mGlu1 receptor (unknown origin) expressed in HEK293 cells by Ca2+ mobilization assay; format: functional, cell-based
Chain of Metabotropic glutamate receptor 1 (Q13255 whole entry): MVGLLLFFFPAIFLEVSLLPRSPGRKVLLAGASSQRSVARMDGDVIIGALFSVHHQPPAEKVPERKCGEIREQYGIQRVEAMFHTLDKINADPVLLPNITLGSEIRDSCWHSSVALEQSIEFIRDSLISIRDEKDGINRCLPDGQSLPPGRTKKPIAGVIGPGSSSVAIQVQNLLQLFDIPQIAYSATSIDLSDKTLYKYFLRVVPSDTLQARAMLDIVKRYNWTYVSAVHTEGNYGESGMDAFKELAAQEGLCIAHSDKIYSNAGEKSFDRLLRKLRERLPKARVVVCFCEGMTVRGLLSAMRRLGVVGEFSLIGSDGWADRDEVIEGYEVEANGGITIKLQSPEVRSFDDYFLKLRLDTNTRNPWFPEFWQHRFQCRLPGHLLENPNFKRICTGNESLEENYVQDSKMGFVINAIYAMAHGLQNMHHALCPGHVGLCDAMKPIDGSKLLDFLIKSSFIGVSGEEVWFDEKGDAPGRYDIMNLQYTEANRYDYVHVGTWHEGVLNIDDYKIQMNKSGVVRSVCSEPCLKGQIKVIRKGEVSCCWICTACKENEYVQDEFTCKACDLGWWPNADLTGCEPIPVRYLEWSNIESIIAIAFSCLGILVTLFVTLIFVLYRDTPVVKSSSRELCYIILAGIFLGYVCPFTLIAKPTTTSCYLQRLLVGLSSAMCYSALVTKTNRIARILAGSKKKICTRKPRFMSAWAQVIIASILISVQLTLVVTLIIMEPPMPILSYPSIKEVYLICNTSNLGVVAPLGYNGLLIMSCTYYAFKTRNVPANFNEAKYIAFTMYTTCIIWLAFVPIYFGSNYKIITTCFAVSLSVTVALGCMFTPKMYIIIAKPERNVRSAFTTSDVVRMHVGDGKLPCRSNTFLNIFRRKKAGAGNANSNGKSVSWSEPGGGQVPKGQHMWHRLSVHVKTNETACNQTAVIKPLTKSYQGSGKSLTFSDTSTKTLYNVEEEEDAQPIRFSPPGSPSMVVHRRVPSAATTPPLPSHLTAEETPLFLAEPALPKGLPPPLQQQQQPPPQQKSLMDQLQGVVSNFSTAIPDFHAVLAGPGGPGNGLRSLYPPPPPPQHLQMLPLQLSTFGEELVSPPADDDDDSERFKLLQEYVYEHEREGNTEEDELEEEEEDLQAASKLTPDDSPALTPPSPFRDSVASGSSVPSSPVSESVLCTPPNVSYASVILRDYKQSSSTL

[7] = target: Metabotropic glutamate receptor 6 (Homo sapiens, UniProt O15303); assay: Activity at mGlu6 receptor (unknown origin) expressed in HEK293 cells pre-treated for 15 mins before addition of EC80 concentration of reference agonist for another 15 mins by cAMP accumulation assay; format: functional, cell-based
Chain of Metabotropic glutamate receptor 6 (O15303 whole entry): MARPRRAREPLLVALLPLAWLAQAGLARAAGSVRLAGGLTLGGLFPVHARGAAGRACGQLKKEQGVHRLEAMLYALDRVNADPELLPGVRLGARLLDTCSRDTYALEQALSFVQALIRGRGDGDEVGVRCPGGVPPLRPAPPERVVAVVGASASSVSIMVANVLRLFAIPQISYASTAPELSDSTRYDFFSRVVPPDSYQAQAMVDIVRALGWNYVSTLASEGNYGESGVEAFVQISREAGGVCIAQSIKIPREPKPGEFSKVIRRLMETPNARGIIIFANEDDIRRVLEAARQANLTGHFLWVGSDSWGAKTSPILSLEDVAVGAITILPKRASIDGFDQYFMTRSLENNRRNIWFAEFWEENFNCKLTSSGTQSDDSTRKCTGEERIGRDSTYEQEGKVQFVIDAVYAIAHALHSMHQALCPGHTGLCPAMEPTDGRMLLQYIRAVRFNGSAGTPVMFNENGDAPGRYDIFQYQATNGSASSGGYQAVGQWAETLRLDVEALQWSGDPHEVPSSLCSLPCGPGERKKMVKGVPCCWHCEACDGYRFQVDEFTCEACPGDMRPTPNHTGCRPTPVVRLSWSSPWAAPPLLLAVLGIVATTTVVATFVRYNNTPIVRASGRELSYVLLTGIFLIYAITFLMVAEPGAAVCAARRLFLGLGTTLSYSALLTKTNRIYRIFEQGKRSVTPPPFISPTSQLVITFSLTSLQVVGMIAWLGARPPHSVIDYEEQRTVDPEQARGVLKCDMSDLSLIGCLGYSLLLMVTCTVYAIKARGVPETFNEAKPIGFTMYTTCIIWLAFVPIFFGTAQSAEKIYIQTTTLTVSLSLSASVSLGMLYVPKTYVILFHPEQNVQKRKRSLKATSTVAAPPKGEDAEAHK

[8] = target: Metabotropic glutamate receptor 2 (Homo sapiens, UniProt Q14416); assay: Activity at mGlu2 receptor (unknown origin) expressed in HEK293 cells pre-treated for 15 mins before addition of EC80 concentration of reference agonist for another 15 mins by cAMP accumulation assay; format: functional, cell-based
Chain of Metabotropic glutamate receptor 2 (Q14416 whole entry): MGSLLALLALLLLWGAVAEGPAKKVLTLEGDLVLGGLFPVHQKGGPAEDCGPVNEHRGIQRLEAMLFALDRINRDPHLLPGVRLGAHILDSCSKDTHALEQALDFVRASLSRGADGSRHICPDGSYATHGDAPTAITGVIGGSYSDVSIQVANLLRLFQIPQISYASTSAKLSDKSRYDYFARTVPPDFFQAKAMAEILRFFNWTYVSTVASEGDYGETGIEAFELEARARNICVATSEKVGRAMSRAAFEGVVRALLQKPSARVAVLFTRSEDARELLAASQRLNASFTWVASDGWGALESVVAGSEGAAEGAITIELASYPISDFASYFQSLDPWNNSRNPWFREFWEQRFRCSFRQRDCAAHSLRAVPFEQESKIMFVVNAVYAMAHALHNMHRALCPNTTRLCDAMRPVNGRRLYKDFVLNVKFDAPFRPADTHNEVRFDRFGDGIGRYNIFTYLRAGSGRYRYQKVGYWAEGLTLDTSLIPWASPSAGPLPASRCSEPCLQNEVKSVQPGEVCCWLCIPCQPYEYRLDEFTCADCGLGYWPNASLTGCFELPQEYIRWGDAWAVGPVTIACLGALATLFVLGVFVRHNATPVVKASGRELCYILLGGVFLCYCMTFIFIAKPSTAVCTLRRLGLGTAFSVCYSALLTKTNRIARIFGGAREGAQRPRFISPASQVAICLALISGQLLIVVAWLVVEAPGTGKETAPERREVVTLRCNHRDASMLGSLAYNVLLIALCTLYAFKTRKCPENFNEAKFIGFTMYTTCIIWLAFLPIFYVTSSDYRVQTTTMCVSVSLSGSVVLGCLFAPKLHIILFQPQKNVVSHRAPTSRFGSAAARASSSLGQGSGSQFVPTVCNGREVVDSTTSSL

[9] = target: Metabotropic glutamate receptor 8 (Homo sapiens, UniProt O00222); assay: Activity at mGlu8 receptor (unknown origin) expressed in HEK293 cells pre-treated for 15 mins before addition of EC80 concentration of reference agonist for another 15 mins by cAMP accumulation assay; format: functional, cell-based
[10] = target: Metabotropic glutamate receptor 4 (Rattus norvegicus, UniProt P31423); assay: Positive allosteric modulator activity at rat mGlu4 receptor
Chain of Metabotropic glutamate receptor 4 (Rattus norvegicus, UniProt P31423) (P31423 whole entry): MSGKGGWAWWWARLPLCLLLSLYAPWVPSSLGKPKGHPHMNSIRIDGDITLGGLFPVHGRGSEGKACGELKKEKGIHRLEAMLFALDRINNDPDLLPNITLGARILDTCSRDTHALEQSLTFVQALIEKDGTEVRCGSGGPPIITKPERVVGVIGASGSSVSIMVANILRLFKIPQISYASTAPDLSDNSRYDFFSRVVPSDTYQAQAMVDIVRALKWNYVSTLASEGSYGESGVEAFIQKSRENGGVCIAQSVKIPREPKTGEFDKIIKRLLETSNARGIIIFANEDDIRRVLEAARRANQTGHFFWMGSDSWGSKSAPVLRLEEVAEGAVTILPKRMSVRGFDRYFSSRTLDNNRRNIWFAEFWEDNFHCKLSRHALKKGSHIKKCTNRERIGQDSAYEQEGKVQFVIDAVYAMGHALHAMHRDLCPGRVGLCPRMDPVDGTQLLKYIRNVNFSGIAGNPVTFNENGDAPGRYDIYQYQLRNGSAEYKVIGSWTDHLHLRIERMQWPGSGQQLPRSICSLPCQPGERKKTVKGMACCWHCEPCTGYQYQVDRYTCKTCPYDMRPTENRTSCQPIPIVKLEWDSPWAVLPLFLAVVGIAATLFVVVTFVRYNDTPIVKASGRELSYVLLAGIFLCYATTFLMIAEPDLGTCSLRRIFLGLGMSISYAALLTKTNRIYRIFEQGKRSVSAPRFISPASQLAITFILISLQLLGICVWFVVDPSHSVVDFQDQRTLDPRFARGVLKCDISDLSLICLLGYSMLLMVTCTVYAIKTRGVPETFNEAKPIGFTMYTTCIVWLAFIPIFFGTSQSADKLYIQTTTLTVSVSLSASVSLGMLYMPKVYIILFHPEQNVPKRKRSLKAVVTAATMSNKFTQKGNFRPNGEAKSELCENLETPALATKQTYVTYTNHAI

T1 sequence (Q14833 whole entry): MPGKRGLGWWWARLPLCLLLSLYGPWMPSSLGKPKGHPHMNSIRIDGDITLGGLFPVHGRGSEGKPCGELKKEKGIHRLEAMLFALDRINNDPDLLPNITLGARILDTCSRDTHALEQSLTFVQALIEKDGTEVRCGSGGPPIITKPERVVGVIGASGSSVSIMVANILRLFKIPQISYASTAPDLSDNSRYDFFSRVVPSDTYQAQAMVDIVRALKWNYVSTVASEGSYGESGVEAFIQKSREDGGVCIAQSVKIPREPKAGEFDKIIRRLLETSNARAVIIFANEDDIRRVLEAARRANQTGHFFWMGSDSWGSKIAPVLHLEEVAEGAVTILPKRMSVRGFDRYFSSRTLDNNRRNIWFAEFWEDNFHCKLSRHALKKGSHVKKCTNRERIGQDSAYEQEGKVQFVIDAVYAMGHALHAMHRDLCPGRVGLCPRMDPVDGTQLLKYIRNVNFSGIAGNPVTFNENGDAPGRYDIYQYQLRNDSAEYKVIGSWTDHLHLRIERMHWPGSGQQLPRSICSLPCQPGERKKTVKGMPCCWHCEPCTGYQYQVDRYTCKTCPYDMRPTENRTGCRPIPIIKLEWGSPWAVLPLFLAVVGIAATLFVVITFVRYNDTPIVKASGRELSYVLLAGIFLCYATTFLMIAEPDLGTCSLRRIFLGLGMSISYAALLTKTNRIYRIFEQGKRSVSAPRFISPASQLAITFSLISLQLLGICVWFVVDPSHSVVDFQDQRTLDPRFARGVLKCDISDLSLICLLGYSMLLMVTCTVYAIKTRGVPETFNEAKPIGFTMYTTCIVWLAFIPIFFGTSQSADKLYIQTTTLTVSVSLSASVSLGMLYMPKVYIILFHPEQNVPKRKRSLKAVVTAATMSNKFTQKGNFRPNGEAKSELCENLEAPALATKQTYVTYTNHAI

Compound: CSc1cccc(NC(=O)c2ccccn2)c1
IC50 [1]: 4.9 nM

Compound: N#Cc1cc(NC(=O)c2ccccn2)ccc1Br
IC50 [1]: 47 nM

Compound: COc1cc(NC(=O)c2cccc(F)n2)ccc1F
IC50 [1]: 89.2 nM

Compound: COc1cc(NC(=O)c2ccccn2)ccc1Br
IC50 [1]: 322 nM

Compound: COc1cc(NC(=O)c2cccc(F)n2)ccc1Cl
IC50 [1]: 7.3 nM

EC50 [2]: 9 nM
Compound: c1cnc(Nc2nc3c(s2)CCCc2[nH]ncc2-3)nc1

Compound: O=C(Nc1ccc(Cl)c(OCF)c1)c1ccccn1
IC50 [1]: 3.2 nM
t1/2 [3]: 5.8 min
Peff [4]: 272 ×10⁻⁶ cm/s

Compound: [2H]C([2H])(F)Oc1cc(NC(=O)c2ccccn2)ccc1Cl
IC50 [5]: > 30 µM
IC50 [6]: > 30 µM
IC50 [1]: 3.2 nM
t1/2 [3]: 7.4 min
IC50 [7]: > 30 µM
IC50 [8]: > 30 µM
IC50 [9]: > 30 µM

Compound: N#Cc1cc(NC(=O)c2ccccn2)ccc1F
IC50 [1]: 7.4 nM

Compound: O=C(Nc1cccc(OC(F)F)c1)c1cccc(F)n1
IC50 [1]: 6.7 nM

Compound: COc1cccc(NC(=O)c2ccccn2)c1
IC50 [1]: 13.7 nM

Compound: Cc1ccnc(Nc2nc(-c3cn[nH]c3)c(C)s2)n1
EC50 [10]: 9 nM
t1/2 [3]: 7 min
Peff [4]: 257 ×10⁻⁶ cm/s

Compound: N#Cc1cc(NC(=O)c2ccccn2)ccc1Cl
IC50 [1]: 5.3 nM

Compound: COc1cc(NC(=O)c2ccccn2)ccc1Cl
t1/2 [3]: 4.9 min
Peff [4]: 256 ×10⁻⁶ cm/s

Compound: COc1cc(NC(=O)c2ccccn2)ccc1I
IC50 [1]: 146 nM

Compound: O=C(Nc1cccc(OC(F)F)c1)c1ccccn1
t1/2 [3]: 5.2 min
Peff [4]: 214 ×10⁻⁶ cm/s

EC50 [2]: 1200 nM
EC50 [10]: 330 nM
Compound: O=C(Nc1cccc(Cl)c1)c1ccccn1

Compound: COc1cc(NC(=O)c2ccccn2)ccc1F
IC50 [1]: 31.6 nM

Compound: [2H]C([2H])(F)Oc1cccc(NC(=O)c2ccccn2)c1
IC50 [1]: 3.7 nM

Compound: N#Cc1cccc(NC(=O)c2ccccn2)c1
IC50 [1]: 10.4 nM

Compound: N#Cc1cc(NC(=O)c2ccccn2)ccc1I
IC50 [1]: 172 nM
